Experiment [1] deals with T1, RIPK1 enzyme (Homo sapiens, UniProt Q13546).
T1 construct: purchased Eurofins 16-022
T1 sequence (Q13546 1-671): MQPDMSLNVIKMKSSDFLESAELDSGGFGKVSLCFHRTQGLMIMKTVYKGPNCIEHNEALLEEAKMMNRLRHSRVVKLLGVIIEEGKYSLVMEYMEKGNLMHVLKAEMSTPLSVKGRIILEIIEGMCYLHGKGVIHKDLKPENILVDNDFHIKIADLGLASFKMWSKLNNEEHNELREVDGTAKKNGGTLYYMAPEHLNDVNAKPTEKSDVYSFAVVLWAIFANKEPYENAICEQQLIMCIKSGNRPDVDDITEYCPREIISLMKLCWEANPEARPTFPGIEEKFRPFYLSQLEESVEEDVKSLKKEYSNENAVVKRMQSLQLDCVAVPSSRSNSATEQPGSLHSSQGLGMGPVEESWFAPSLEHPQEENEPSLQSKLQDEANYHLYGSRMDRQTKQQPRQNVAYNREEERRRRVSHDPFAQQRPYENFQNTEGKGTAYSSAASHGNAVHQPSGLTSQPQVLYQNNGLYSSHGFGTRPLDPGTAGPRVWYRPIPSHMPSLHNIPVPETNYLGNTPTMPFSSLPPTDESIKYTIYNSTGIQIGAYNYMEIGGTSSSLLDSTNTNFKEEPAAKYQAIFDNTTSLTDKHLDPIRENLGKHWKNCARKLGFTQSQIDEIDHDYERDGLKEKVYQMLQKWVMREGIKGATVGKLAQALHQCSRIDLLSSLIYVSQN
Kind of experiment: Inhibitory activity of the compounds against RIPK1 enzyme (P33-ATP, MBP substrate). The note with it: 36 nM RIPK1, substrate MBP, 10 mM magnesium ion, P33-labeled ATP, 2 h room temperature; read-out: RIPK1 enzyme inhibitory activety IC50. Format: biochemical. How it is done:
The compound to be tested was dissolved in DMSO, and diluted in 3.16 folds with DMSO to a series of gradient concentrations. Then, the solution was diluted with MOPS buffer pH 7.0 to the final concentration. The resultant working solution was mixed with 36 nM RIPK1 (final concentration) and the substrate MBP homogeneously. Thereafter, 10 mM magnesium ion and P^33 isotopically labeled ATP were added for the reaction. After the reaction was carried out at room temperature for 2 h, phosphoric acid was added to terminate the reaction. The final reaction system was tested using a liquid scintillation counter after treatment. The […] for the tested result and a positive control group were converted to activity percentage. The activity percentage was plotted against the final concentration of respective compound using a 4-parameter fitting to obtain the inhibitory IC50 of the compound against RIPK1 enzyme.

Experiment [2] concerns U937 cells. Nature of the experiment: Inhibitory activity against programmed necroptosis of U937 cells induced by TNF-α and Q-VD-Oph (CellTiter-Glo). Format: cell-based. The note with it: Celltiter-Glo survival rate. The method, then:
The U937 cell strain which was used in the following Testing Examples was derived from ATCC, No.: CRL-1593.2, batch No.: 63479999, culture medium: RPMI-1640+10% FBS.
The compound to be tested was dissolved in DMSO, and diluted with DMSO to a series of gradient concentrations. The U937 cells were inoculated in a 384-well plate at 5000/well. The compound at respective concentration was added to each of the wells, and was mixed with the cells homogeneously. Human TNF-α and Q-VD-Oph were added simultaneously to induce programmed necroptosis of the cells. The cells were placed in the incubator at 37° C. and 5% CO2 for further culture of 48 h. Celltiter-Glo reagent was used for detection. After adequate pyrolysis reaction, the chemiluminescence readout value was recorded by a microplate reader. The survival rate was calculated from the detection results using the equation as follows: SR (%)=(RLU compound−RLU blank)/(RLU high control−RLU blank)×100%. The survival rate was plotted against the final concentration of respective compound using a 4-parameter fitting to calculate the inhibitory C50 of the compound against programmed necroptosis of cells induced by TNF-α.
On the technique in general: In ATP-based viability assays light output follows the ATP content of the culture.

[3] abbreviates: human TNF-α + Q-VD-Oph induced necroptosis, 48 h.

pIC50: −log10 of the molar value.

Take `N#Cc1cc(N2CC3CC(C(=O)N4N=CCC4c4ccccc4)CC3C2)ncn1` (single isomer, unassigned) [Compound Z-9-1]: the pIC50 – broadly, −log10 of the IC50, conventionally taken in molar units – was 7.54 in experiment [1] and 6.80 in experiment [2] (Homo sapiens, U-937, 48 h). Taken in the same sequence, the figures for `N#Cc1cc(N2CCC(C(=O)N3N=CCC3c3cc(F)cc(F)c3)C3(CC3)C2)ncn1` (single isomer, unassigned) [Compound Z-25-2] were 7.38 and 9.00. Take `N#Cc1cc(N2CC[C@H](C(=O)N3N=CC[C@H]3c3cncc(F)c3)C3(CC3)C2)ncn1` (single isomer, unassigned) [Compound Z-48-d]: the pIC50 in experiment [1] was 7.30; in experiment [2] (Homo sapiens, U-937, 48 h), 8.15. As for `NC(=O)c1cc(N2CC3CC(C(=O)N4N=CCC4c4ccccc4)CC3C2)ncn1` (centres unmarked) [Compound Z-10], the pIC50 in experiment [1] was 7.02; in experiment [2] (Homo sapiens, U-937, 48 h), 6.82. The matching figures for `N#Cc1cc(N2CC3CC(C(=O)N4N=CCC4c4cc(F)cc(F)c4)CC3C2)ncn1` (centres unmarked) [Compound Z-11, 6-(5-(5-(3,5-difluorophenyl)-4,5-dihydro-1H-pyrazole-1-carbonyl)hexahydrocyclopenta[C]pyrrol-2(1H)-yl)pyrimidine-4-carbonitrile]: 7.05 and 6.86.

As to `COc1cc(N2CC3CC(C(=O)N4N=CCC4c4ccccc4)CC3C2)ncn1` (centres unmarked) [Compound Z-12, (2-(6-methoxypyrimidin-4-yl)octahydrocyclopenta[c]pyrrol-5-yl)(5-phenyl-4,5-dihydro-1H-pyrazol-1-yl) ketone], the pIC50 in experiment [1] was 6.91.

`NC(=O)c1ccnc(N2CC3CC(C(=O)N4N=CCC4c4cc(F)cc(F)c4)CC3C2)n1` (centres unmarked) [Compound Z-18, 2-(5-(5-(3,5-difluorophenyl)-4,5-dihydro-1H-pyrazole-1-carbonyl)hexahydrocyclopenta [c]pyrrol-2(1H)-yl)pyrimidine-4-carboxamide]: in experiment [2] (Homo sapiens, U-937, 48 h), the pIC50 was 7.03. The same measure, in the same setting: as for `NC(=O)c1cc(N2CC3CC(C(=O)N4N=CCC4c4cc(F)ccc4F)CC3C2)ncn1` (centres unmarked) [Compound Z-20, 6-(5-(5-(2,5-difluorophenyl)-4,5-dihydro-1H-pyrazole-1-carbonyl)hexahydrocyclopenta[c]pyrrol-2(1H)-yl)pyrimidine-4-carboxamide], the figure is 6.57. The same measure, in the same setting: with `NC(=O)c1ccnc(N2CC3CC(C(=O)N4N=CCC4c4cc(F)ccc4F)CC3C2)n1` (centres unmarked) [Compound Z-22, 2-(5-(5-(2,5-difluorophenyl)-4,5-dihydro-1H-pyrazole-1-carbonyl)hexahydrocyclopenta [c]pyrrol-2(1H)-yl)pyrimidine-4-carboxamide] the figure was 7.15. The same measure, in the same setting: with `Nc1nc(N2CC3CC(C(=O)N4N=CCC4c4cc(F)cc(F)c4)CC3C2)ncc1F` (centres unmarked) [Compound Z-23, (2-(4-amino-5-fluoropyrimidin-2-yl)octahydrocyclopenta[c]pyrrol-5-yl)(5-(3,5-difluorophenyl)-4,5-dihydro-1H-pyrazol-1-yl) ketone] the figure was 7.28; with `N#Cc1ccnc(N2CC3CC(C(=O)N4N=CCC4c4cc(F)ccc4F)CC3C2)n1` (centres unmarked) [Compound Z-24, 2-(5-(5-(2,5-difluorophenyl)-4,5-dihydro-1H-pyrazole-1-carbonyl)hexahydrocyclopenta[c]pyrrol-2(1H)-yl)pyrimidine-4-carbonitrile], 6.74. The compound `Nc1nc(N2CC3CC(C(=O)N4N=CCC4c4cncc(F)c4)CC3C2)ncc1F` (centres unmarked) [Compound Z-30, (2-(4-amino-5-fluoropyrimidin-2-yl)octahydrocyclopenta[c]pyrrol-5-yl)(5-(5-fluoropyridin-3-yl)-4,5-dihydro-1H-pyrazol-1-yl) ketone] showed a pIC50 in experiment [2] (Homo sapiens, U-937, 48 h) of 6.35. In the case of `N#Cc1ccnc(N2CC3CC(C(=O)N4N=CCC4c4cncc(F)c4)CC3C2)n1` (centres unmarked) [Compound Z-31, 2-(5-(5-(5-fluoropyridin-3-yl)-4,5-dihydro-1H-pyrazole-1-carbonyl)hexahydrocyclopenta[c]pyrrol-2(1H)-yl)pyrimidine-4-carbonitrile], in experiment [2] (Homo sapiens, U-937, 48 h), the pIC50 is 6.39. With `N#Cc1ccnc(N2CC3CC(C(=O)N4N=CCC4c4cc(F)cc(F)c4)CC3C2)n1` (centres unmarked) [Compound Z-32, 2-(5-(5-(3,5-difluorophenyl)-4,5-dihydro-1H-pyrazole-1-carbonyl)hexahydrocyclopenta [c]pyrrol-2(1H)-yl)pyrimidine-4-carbonitrile], in experiment [2] (Homo sapiens, U-937, 48 h), the negative logarithm of the IC50 (pIC50) is 7.22. In the case of `Cc1nnc(N2CCC(C(=O)N3N=CCC3c3cc(F)cc(F)c3)C3(CC3)C2)o1` (centres unmarked) [Compound Z-61, (5-(3,5-difluorophenyl)-4,5-dihydro-1H-pyrazol-1-yl)(5-(5-methyl-1,3,4-oxadizol-2-yl)-5-aza-spiro[2.5]octane-8-yl) ketone], in experiment [2] (setting [3]), the pIC50 was 7.28. As to `N#Cc1cc(N2CCC(C(=O)N3N=CCC3c3cc(F)cc(F)c3)CC23CC3)ncn1` (centres unmarked) [Compound Z-62, 6-(7-(5-(3,5-difluorophenyl)-4,5-dihydro-1H-pyrazole-1-carbonyl)-4-aza-spiro[2.5]oct-4-yl)pyrimidine-4-carbonitrile], the pIC50 in experiment [2] (Homo sapiens, U-937, 48 h) was 8.15. As for `Cc1nnc(N2CCC(C(=O)N3N=CCC3c3cc(F)cc(F)c3)C3(CC3)C2)o1` (centres unmarked) [Compound Z-63-2, (5-(3,5-difluorophenyl)-4,5-dihydro-1H-pyrazol-1-yl)(5-(5-methyl-1,3,4-oxadizol-2-yl)-5-aza-spiro[2.5]octane-8-yl) ketone], in experiment [2] (setting [3]), the pIC50 was 7.68.

As to `Cc1nnc(N2CCC(C(=O)N3N=CCC3c3cc(F)cc(F)c3)C3(CC3)C2)o1` (centres unmarked) [Compound Z-63-a, (5-(3,5-difluorophenyl)-4,5-dihydro-1H-pyrazol-1-yl)(5-(5-methyl-1,3,4-oxadizol-2-yl)-5-aza-spiro[2.5]octane-8-yl) ketone], in experiment [2] (setting [3]), the pIC50 was 7.49.

`NC(=O)c1cc(N2CCC(C(=O)N3N=CCC3c3cc(F)cc(F)c3)CC23CC3)ncn1` (centres unmarked) [Compound Z-64-1, 6-(7-(5-(3,5-difluorophenyl)-4,5-dihydro-1H-pyrazole-1-carbonyl)-4-aza-spiro[2.5]oct-4-yl)pyrimidine-4-carboxamide]: the pIC50 in experiment [2] (setting [3]) is 8.22. With `N#Cc1cc(N2CCC(C(=O)N3N=CCC3c3cncc(F)c3)CC23CC3)ncn1` (centres unmarked) [Compound Z-65, 6-(7-(5-(5-fluoropyridin-3-yl)-4,5-dihydro-1H-pyrazole-1-carbonyl)-4-aza-spiro[2.5]oct-4-yl)pyrimidine-4-carbonitrile], in experiment [2] (Homo sapiens, U-937, 48 h), the pIC50 is 7.28. Consider `NC(=O)c1cc(N2CCC(C(=O)N3N=CCC3c3cc(F)cc(F)c3)CC23CC3)ncn1` (centres unmarked) [Compound Z-66, 6-(7-(5-(3,5-difluorophenyl)-4,5-dihydro-1H-pyrazole-1-carbonyl)-4-aza-spiro[2.5]oct-4-yl)pyrimidine-4-carboxamide], for which, in experiment [2] (setting [3]), the pIC50 was 7.70.

Consider `NC(=O)c1cc(N2CCC(C(=O)N3N=CCC3c3cncc(F)c3)CC23CC3)ncn1` (centres unmarked) [Compound Z-67, 6-(7-(5-(5-fluoropyridin-3-yl)-4,5-dihydro-1H-pyrazole-1-carbonyl)-4-aza-spiro[2.5]oct-4-yl)pyrimidine-4-carboxamide], for which the pIC50 in experiment [2] (Homo sapiens, U-937, 48 h) was 6.94. For the compound `Cc1nnc(N2CCC(C(=O)N3N=CCC3c3cncc(F)c3)C3(CC3)C2)o1` (centres unmarked) [Compound Z-68, (5-(5-fluoropyridin-3-yl)-4,5-dihydro-1H-pyrazol-1-yl)(5-(5-methyl-1,3,4-oxadizol-2-yl)-5-aza-spiro[2.5]oct-8-yl) methanone], the pIC50 in experiment [2] (setting [3]) was 6.44.

Take `CNC(=O)c1cc(N2CCC(C(=O)N3N=CCC3c3cc(F)cc(F)c3)CC23CC3)ncn1` (centres unmarked) [Compound Z-70-a, 6-(7-(5-(3,5-difluorophenyl)-4,5-dihydro-11H-pyrazole-1-carbonyl)-4-aza-spiro[2.5]oct-4-yl)-N-methylpyrimidine-4-carboxamide]: in experiment [2] (setting [3]), the pIC50 was 7.68.

For the origin of these results see US20220235032A1 (GENFLEET THERAPEUTICS (SHANGHAI) INC., priority 2019, published 2022).
